Measured values from ChEMBL document CHEMBL1201862, “PubChem BioAssay data set” (2004).
Active and inactive are the calls of the source.

Columns and labels:
[1] = target: T1, Sentrin-specific protease 7 (Homo sapiens, UniProt Q9BQF6); assay type: functional;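 note: Luminescence-based dose-response confirmation of ultra-high-throughput screening hits, measuring inhibition of SENP7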
T1 sequence (Q9BQF6 whole entry): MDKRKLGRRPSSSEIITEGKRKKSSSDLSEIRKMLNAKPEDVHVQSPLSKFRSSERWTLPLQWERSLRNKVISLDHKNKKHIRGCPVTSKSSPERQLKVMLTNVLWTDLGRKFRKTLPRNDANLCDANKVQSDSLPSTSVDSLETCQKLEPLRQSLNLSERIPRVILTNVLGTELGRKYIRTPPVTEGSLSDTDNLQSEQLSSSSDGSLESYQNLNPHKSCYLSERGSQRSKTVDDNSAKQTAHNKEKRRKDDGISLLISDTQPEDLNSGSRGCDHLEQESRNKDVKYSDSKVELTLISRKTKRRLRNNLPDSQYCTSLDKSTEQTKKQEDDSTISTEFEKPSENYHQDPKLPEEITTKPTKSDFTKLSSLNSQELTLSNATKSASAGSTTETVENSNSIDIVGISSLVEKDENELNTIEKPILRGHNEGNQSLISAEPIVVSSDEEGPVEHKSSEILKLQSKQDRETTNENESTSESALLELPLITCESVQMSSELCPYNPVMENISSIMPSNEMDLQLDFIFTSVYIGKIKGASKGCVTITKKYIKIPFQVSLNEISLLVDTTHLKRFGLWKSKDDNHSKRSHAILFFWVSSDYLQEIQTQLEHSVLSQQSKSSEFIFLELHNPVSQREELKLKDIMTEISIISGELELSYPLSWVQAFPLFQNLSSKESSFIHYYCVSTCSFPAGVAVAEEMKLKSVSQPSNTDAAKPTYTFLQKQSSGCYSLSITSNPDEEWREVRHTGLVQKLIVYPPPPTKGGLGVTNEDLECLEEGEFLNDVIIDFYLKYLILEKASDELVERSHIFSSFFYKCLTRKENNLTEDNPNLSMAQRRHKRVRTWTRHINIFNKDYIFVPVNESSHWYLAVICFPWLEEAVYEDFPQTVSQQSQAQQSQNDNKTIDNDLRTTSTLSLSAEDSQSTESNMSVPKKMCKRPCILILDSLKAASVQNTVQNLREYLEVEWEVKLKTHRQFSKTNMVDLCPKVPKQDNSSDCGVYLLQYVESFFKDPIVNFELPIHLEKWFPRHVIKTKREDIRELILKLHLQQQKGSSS

[2] = target: Megakaryocyte-associated tyrosine-protein kinase (Homo sapiens, UniProt P42679); assay type: functional;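 note: affinity measured as one member of a kinase panel (Navigating the Kinome) against MATK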
Megakaryocyte-associated tyrosine-protein kinase, sequence (P42679 whole entry): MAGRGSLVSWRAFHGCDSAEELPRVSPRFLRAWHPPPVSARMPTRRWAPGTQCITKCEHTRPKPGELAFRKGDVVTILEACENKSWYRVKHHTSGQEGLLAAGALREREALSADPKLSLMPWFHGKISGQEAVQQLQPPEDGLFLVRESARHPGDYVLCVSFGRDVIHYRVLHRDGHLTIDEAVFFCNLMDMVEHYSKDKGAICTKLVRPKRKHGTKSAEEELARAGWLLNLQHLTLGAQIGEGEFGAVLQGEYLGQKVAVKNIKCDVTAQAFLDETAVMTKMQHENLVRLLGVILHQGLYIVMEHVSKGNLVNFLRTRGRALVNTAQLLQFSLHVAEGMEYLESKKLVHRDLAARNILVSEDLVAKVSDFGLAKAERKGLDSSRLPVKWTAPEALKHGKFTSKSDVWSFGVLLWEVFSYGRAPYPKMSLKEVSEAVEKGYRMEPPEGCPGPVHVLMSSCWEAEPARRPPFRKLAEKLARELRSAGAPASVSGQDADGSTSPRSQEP

[3] = target: Calcium/calmodulin-dependent protein kinase type 1 (Homo sapiens, UniProt Q14012); assay type: functional
Calcium/calmodulin-dependent protein kinase type 1, sequence (Q14012 whole entry): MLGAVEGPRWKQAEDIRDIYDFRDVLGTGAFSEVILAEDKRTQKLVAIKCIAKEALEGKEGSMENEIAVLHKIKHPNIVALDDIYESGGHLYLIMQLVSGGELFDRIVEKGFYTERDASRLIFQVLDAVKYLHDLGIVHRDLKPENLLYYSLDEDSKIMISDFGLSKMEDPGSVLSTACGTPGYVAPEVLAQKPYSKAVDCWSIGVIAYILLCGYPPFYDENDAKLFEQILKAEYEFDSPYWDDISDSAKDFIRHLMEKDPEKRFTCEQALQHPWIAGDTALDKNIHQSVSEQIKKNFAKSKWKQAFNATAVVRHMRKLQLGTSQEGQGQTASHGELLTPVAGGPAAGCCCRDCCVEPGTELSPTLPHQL

[4] = target: Serine/threonine-protein kinase PLK3 (Homo sapiens, UniProt Q9H4B4); assay type: functional
[5] = target: Serine/threonine-protein kinase DCLK1 (Homo sapiens, UniProt O15075); assay type: functional;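 note: affinity for DCLK1 (listed as DCAMKL1) measured as one member of a kinome-wide kinase profiling panel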
[6] = target: Cyclin-dependent kinase 1 (Homo sapiens, UniProt P06493); assay type: functional;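 note: Kinome-wide panel profiling, with the target listed as panel member CDC2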
Cyclin-dependent kinase 1, sequence (P06493 whole entry): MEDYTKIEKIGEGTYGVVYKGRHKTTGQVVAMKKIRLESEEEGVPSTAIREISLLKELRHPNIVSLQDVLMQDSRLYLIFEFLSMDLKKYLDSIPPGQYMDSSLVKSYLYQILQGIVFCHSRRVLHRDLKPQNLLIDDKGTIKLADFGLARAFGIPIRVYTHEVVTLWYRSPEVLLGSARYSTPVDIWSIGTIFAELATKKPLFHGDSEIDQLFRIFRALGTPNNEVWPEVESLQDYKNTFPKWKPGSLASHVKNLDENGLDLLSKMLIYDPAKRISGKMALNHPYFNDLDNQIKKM

[7] = target: RAC-gamma serine/threonine-protein kinase (Homo sapiens, UniProt Q9Y243); assay type: functional
RAC-gamma serine/threonine-protein kinase, sequence (Q9Y243 whole entry): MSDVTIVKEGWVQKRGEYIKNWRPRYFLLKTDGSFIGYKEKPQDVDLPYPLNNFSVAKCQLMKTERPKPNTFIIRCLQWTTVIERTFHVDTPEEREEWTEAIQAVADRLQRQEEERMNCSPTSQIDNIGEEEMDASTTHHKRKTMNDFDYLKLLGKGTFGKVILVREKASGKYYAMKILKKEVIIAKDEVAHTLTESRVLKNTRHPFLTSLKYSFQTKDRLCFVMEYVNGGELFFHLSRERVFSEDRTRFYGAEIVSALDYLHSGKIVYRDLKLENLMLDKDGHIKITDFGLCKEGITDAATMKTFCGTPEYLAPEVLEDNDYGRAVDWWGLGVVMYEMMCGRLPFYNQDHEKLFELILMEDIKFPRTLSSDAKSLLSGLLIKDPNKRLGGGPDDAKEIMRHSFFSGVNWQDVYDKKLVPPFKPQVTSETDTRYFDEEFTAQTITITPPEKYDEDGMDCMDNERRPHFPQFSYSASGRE

[8] = target: Ribosomal protein S6 kinase beta-1 (Homo sapiens, UniProt P23443); assay type: functional;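 note: measured as one member of a kinome-wide profiling panel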
[9] = target: Protein kinase C zeta type (Homo sapiens, UniProt Q05513); assay type: functional;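 note: measured as one member of a broad kinase profiling panel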
Protein kinase C zeta type, sequence (Q05513 whole entry): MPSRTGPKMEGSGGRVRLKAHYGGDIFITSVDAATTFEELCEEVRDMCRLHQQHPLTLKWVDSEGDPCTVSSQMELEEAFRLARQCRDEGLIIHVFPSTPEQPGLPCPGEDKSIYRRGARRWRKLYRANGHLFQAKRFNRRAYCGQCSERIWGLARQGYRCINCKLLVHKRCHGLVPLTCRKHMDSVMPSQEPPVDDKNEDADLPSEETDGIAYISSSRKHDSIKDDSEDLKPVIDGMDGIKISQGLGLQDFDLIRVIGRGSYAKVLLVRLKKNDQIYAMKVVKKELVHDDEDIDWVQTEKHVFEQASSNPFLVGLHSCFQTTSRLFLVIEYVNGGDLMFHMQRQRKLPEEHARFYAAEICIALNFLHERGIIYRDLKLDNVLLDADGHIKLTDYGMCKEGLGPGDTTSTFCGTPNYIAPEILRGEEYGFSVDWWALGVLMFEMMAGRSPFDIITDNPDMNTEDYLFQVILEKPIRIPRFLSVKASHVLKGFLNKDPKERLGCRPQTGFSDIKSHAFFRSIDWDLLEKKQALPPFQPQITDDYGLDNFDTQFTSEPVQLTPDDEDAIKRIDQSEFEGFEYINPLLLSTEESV

[10] = target: Mitogen-activated protein kinase 1 (Homo sapiens, UniProt P28482); assay type: functional
Mitogen-activated protein kinase 1, sequence (P28482 whole entry): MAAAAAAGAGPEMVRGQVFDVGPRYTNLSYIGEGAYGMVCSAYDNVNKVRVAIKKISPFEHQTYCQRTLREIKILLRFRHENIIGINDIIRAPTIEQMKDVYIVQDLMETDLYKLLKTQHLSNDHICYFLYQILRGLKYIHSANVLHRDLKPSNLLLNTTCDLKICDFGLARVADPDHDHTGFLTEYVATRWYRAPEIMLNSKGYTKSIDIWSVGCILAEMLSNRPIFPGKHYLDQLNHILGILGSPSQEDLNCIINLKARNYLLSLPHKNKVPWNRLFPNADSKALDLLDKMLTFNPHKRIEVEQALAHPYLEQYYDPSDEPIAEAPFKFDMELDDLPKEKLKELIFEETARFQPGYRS

[11] = target: Tyrosine-protein kinase FRK (Homo sapiens, UniProt P42685); assay type: functional;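 note: FRK tested as one member of a kinome panel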
Tyrosine-protein kinase FRK, sequence (P42685 whole entry): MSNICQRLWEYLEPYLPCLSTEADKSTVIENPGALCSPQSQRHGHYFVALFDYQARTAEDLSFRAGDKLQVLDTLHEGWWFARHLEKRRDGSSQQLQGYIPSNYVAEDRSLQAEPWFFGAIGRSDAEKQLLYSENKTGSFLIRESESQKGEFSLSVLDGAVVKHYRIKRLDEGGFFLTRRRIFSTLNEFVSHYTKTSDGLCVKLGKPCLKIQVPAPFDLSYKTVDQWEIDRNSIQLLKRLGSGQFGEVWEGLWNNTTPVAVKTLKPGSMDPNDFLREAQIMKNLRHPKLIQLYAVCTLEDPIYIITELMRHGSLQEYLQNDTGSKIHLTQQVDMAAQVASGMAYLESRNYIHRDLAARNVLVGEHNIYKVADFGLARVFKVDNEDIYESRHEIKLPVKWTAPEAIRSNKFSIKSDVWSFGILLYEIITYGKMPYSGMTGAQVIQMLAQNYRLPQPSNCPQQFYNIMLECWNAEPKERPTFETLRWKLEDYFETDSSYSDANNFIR

[12] = target: T2, Interleukin-1 receptor-associated kinase 4 (Homo sapiens, UniProt Q9NWZ3); assay type: functional
T2 sequence (Q9NWZ3 whole entry): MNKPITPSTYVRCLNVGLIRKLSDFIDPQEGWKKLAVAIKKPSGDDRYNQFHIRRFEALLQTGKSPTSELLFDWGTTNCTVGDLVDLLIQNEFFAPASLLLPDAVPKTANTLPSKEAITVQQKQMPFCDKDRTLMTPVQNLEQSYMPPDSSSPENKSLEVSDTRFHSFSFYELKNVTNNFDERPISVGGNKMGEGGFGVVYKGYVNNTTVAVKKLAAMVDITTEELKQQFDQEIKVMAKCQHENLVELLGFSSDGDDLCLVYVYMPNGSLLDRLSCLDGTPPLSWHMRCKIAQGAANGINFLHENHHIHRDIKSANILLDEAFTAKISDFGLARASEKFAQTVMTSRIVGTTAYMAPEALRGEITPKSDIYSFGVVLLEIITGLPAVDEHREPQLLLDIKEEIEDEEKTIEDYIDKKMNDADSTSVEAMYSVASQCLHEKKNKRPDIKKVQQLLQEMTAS

[13] = target: MAP kinase-activated protein kinase 5 (Homo sapiens, UniProt Q8IW41); assay type: functional;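 note: measured as one member of a kinome panel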
MAP kinase-activated protein kinase 5, sequence (Q8IW41 whole entry): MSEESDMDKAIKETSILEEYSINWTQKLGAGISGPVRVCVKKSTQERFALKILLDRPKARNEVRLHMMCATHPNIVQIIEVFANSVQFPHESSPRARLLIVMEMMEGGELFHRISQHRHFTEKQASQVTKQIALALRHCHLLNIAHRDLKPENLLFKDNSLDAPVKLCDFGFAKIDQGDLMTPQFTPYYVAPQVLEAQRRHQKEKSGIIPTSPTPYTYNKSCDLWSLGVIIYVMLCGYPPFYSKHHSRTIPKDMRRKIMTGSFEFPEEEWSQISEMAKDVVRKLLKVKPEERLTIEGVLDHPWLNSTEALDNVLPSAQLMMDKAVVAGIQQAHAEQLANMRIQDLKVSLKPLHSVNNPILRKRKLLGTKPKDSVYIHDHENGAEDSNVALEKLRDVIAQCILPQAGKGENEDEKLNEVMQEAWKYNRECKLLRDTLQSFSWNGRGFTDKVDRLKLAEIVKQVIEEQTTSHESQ

[14] = target: Calcium/calmodulin-dependent protein kinase type II subunit gamma (Homo sapiens, UniProt Q13555); assay type: functional
Calcium/calmodulin-dependent protein kinase type II subunit gamma, sequence (Q13555 whole entry): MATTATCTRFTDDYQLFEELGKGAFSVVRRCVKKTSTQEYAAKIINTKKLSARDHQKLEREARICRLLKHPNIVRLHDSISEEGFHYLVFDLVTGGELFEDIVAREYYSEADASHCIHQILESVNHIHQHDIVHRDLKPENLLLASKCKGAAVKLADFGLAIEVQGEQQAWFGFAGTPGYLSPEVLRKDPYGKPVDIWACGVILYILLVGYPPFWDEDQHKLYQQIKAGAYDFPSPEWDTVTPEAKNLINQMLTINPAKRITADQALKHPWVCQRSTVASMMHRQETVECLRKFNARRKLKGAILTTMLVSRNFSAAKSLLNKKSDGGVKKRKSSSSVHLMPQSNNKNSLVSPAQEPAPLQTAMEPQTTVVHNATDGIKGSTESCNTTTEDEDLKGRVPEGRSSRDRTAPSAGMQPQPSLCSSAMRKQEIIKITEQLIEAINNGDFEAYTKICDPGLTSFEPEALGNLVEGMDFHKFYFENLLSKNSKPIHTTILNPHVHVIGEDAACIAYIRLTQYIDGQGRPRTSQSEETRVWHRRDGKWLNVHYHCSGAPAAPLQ

[15] = target: STE20-like serine/threonine-protein kinase (Homo sapiens, UniProt Q9H2G2); assay type: functional
[16] = target: Phosphorylase b kinase gamma catalytic chain, liver/testis isoform (Homo sapiens, UniProt P15735); assay type: functional;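 note: PHKG2 measured as one member of a kinome-wide kinase panel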
[17] = target: MAP kinase-activated protein kinase 2 (Homo sapiens, UniProt P49137); assay type: functional;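 note: measured as one member of a kinome-wide kinase panel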
[18] = target: Receptor tyrosine-protein kinase erbB-4 (Homo sapiens, UniProt Q15303); assay type: functional;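 note: ERBB4 member of a kinome-wide kinase profiling panel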
[19] = target: Tyrosine-protein kinase Fer (Homo sapiens, UniProt P16591); assay type: functional;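 note: FER tested as one member of a kinome panel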
Tyrosine-protein kinase Fer, sequence (P16591 whole entry): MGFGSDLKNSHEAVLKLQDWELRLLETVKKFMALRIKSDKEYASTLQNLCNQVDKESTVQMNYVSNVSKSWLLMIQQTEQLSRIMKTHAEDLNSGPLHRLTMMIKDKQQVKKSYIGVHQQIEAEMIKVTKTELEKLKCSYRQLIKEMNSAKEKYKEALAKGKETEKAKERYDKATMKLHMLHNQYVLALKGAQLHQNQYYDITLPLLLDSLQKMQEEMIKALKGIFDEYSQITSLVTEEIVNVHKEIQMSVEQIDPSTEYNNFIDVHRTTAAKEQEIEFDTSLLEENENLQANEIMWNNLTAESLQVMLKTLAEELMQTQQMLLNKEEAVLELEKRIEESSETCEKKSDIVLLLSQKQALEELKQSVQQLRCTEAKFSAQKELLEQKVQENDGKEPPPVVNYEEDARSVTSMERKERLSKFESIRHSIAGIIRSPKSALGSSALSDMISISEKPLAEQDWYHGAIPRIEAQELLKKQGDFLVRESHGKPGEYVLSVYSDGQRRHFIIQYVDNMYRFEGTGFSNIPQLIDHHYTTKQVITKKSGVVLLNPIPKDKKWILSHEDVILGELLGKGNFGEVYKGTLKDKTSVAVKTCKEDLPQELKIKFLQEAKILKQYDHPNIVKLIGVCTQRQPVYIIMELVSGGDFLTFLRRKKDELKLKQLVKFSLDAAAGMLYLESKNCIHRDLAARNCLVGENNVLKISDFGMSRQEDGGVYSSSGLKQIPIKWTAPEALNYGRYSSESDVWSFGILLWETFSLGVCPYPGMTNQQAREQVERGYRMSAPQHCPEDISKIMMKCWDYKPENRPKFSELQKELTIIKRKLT

[20] = target: cGMP-dependent protein kinase 1 (Homo sapiens, UniProt Q13976); assay type: functional;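 note: value from a kinome panel screen with PRKG1 as the panel member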
[21] = target: Dual specificity tyrosine-phosphorylation-regulated kinase 4 (Homo sapiens, UniProt Q9NR20); assay type: functional
[22] = Counterscreen for AddAB inhibitors: absorbance-based bacterial cell-based high throughput dose response assay for inhibitors of bacterial viability. [Related pubchem assays (depositor defined):AID435030, AID449728, AID449731, AID488942, AID488955, AID488956]; assay type: functional
cells = assay type: functional, cell-based
[23] = target: ATP-dependent molecular chaperone HSP82 (Candida albicans (strain WO-1) (Yeast), UniProt C4YTQ8); experiment: loss of DOC-induced GRE-beta-galactosidase reporter signal, dose response, Hsp90 inhibitor project, S. cerevisiae, luminescence (AID 2400); assay type: functional, cell-based;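 note: beta-galactosidase luminescence from glucocorticoid response element reporter as proxy for Hsp90 function; inhibitor potency where signal loss means Hsp90 inhibition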

In the case of `OCC[n+]1c2ccccc2nc2ccc(N3CCOCC3)cc21`, the IC50 [1] is reported as 28 µM (active).

With `CS(=O)(=O)N(Cc1ccc2[nH]c(=O)c3cccn3c2c1)C1CC1` the Ki [2] was 0.0794 µM (active), the Ki [3] was > 5.01 µM (inactive) and the Ki [4] was 0.0158 µM (active). For the same molecule, the Ki [5] was > 10 µM (inactive), the Ki [6] was > 7.94 µM (inactive) and the Ki [7] was 0.0794 µM (active). For the same molecule, the Ki [8] was > 6.31 µM (inactive), the Ki [9] was > 7.94 µM (inactive) and the Ki [10] was > 7.94 µM (inactive). The Ki [11] was > 2.51 µM (inactive), the Ki [12] was > 10 µM (inactive) and the Ki [13] was 0.01 µM (active). For the same molecule, the Ki [14] was 0.251 µM (active), the Ki [15] was > 10 µM (inactive) and the Ki [16] was 2 µM (active). For the same molecule, the Ki [17] was 0.0794 µM (active), the Ki [18] was > 3.98 µM (inactive) and the Ki [19] was > 1.58 µM (inactive). For the same molecule, the Ki [20] was 0.251 µM (active) and the Ki [21] was 0.0398 µM (active).

For `Cc1cc(NC(c2ccc(Cl)cc2)c2ccc3cccnc3c2O)no1` (centres undefined), the IC50 [22] was > 119 µM (inactive), the EC50 (cells) was > 350 µM (not active) and the EC50 [23] was 20.7 µM (active).
